{"source": "patent US11458123B2", "about": "(Arvinas, Inc., priority 2016, dated 2022)"}
{"system": "tau protein", "test": "Tau protein in vitro degradation assay (Western blot, Tau-13 antibody)", "format": "cell-based, human", "conditions": "SK-N-SH cells; 72 hours of incubation; tested at 300 nM, 100 nM, 33 nM and 11 nM; Western blot, Tau-13 antibody", "description": "(§1) Tau Protein In Vitro Degradation Assay\n(§2) To determine effect of PROTACs on tau protein degradation SK-N-SH cells were seeded in a 24-well tissue culture-treated plate for at least 18-hours prior to compound addition. Tau PROTACs were evaluated for tau degradation by lysing the cells in lysis buffer with protease inhibitors following a 72-hour incubation with tau PROTACs at 1000 nM, 300 nM and 100 nM for Table 1 and 300 nM, 100 nM, 33 nM and 11 nM for Table 2. Cell lysates were run on standard SDS-PAGE gels, and tau levels were detected by Western blotting using Tau-13 antibody from Abcam (Cambridge, UK) that binds to all forms of human tau."}
{"smiles": "Cn1c2ccncc2c2ccc(-c3ccc(O[C@H]4C[C@@H](Oc5ccc(C#CCCCCOc6ccc7c(c6)C(=O)N(C6CCC(=O)NC6=O)C7=O)cn5)C4)nc3)cc21", "note": "(stereo partly shown) [Compound 144, 2-(2,6-dioxopiperidin-3-yl)-5-(6-(6-((1s,3s)-3-(5-(5-methyl-5H-pyrido[4,3-b]indol-7-yl)pyridin-2-yloxy)cyclobutoxy)pyridin-3-yl)hex-5-ynyloxy)isoindoline-1,3-dione]", "Degradation activity* (highest amount of degradation observed at any dosage; tau protein remaining)": "C (>80% tau protein remaining after 72 hours of incubation with the test compound)"}
{"smiles": "Cn1c2ccncc2c2ccc(-c3ccc(OCCCCCOCCCCCOC4CN(c5ccc6c(c5)C(=O)N(C5CCC(=O)NC5=O)C6=O)C4)nc3)cc21", "note": "(stereo not shown) [Compound 79, 2-(2,6-dioxopiperidin-3-yl)-5-(3-((5-((5-((5-(5-methyl-5H-pyrido[4,3-b]indol-7-yl)pyridin-2-yl)oxy)pentyl)oxy)pentyl)oxy)azetidin-1-yl)isoindoline-1,3-dione]", "Degradation activity* (highest amount of degradation observed at any dosage; tau protein remaining)": "A (≤50% tau protein remaining after 72 hours of incubation with the test compound)"}
{"smiles": "Cn1c2ccncc2c2ccc(-c3ccc(O[C@H]4C[C@H](OCCCCCCN5CCN(c6ccc7c(c6)C(=O)N(C6CCC(=O)NC6=O)C7=O)CC5)C4)nc3)cc21", "note": "(stereo partly shown) [Compound 78, 2-(2,6-dioxopiperidin-3-yl)-5-(4-(6-((1r,3r)-3-((5-(5-methyl-5H-pyrido[4,3-b]indol-7-yl)pyridin-2-yl)oxy)cyclobutoxy)hexyl)piperazin-1-yl)isoindoline-1,3-dione]", "Degradation activity* (highest amount of degradation observed at any dosage; tau protein remaining)": "C (>80% tau protein remaining after 72 hours of incubation with the test compound)"}
{"smiles": "Cn1c2ccncc2c2ccc(-c3ccc(O[C@H]4C[C@H](OCC56CC(COCCOCCOc7ccc8c(c7)C(=O)N(C7CCC(=O)NC7=O)C8=O)(C5)C6)C4)nc3)cc21", "note": "(stereo partly shown) [Compound 209, 2-(2,6-dioxopiperidin-3-yl)-5-(2-(2-((3-(((1r,3r)-3-((5-(5-methyl-5H-pyrido[4,3-b]indol-7-yl)pyridin-2-yl)oxy)cyclobutoxy)methyl)bicyclo[1.1.1]pentan-1-yl)methoxy)ethoxy)ethoxy)isoindoline-1,3-dione]", "Degradation activity (tau protein remaining; highest amount of degradation observed at any dosage)": "A (≤50% tau protein remaining after 72 hours of incubation with the test compound)"}
{"smiles": "Cn1c2ccncc2c2ccc(-c3ccc(O[C@H]4C[C@H](OCC5(COCCCOC6CN(c7ccc8c(c7)C(=O)N(C7CCC(=O)NC7=O)C8=O)C6)COC5)C4)nc3)cc21", "note": "(stereo partly shown) [Compound 169, 2-(2,6-dioxopiperidin-3-yl)-5-(3-(3-((3-(((1r,3r)-3-((5-(5-methyl-5H-pyrido[4,3-b]indol-7-yl)pyridin-2-yl)oxy)cyclobutoxy)methyl)oxetan-3-yl)methoxy)propoxy)azetidin-1-yl)isoindoline-1,3-dione]", "Degradation activity* (highest amount of degradation observed at any dosage; tau protein remaining)": "A (≤50% tau protein remaining after 72 hours of incubation with the test compound)"}
{"smiles": "O=C1CCC(N2C(=O)c3ccc(N4CC(OCCCOCCCO[C@H]5C[C@H](Oc6ccc(-c7ccc8c(c7)[nH]c7ccncc78)cn6)C5)C4)cc3C2=O)C(=O)N1", "note": "(stereo partly shown) [Compound 182, 5-(3-(3-(3-((1r,3r)-3-((5-(5H-pyrido[4,3-b]indol-7-yl)pyridin-2-yl)oxy)cyclobutoxy)propoxy)propoxy)azetidin-1-yl)-2-(2,6-dioxopiperidin-3-yl)isoindoline-1,3-dione]", "Degradation activity (tau protein remaining; highest amount of degradation observed at any dosage)": "A (≤50% tau protein remaining after 72 hours of incubation with the test compound)"}
{"smiles": "Cn1c2ccncc2c2ccc(-c3ccc(O[C@H]4C[C@H](Oc5ccc(CCCCCCOc6ccc7c(c6)C(=O)N(C6CCC(=O)NC6=O)C7=O)cn5)C4)nc3)cc21", "note": "(stereo partly shown) [Compound 110, 2-(2,6-dioxopiperidin-3-yl)-5-((6-(6-((1r,3r)-3-((5-(5-methyl-5H-pyrido[4,3-b]indol-7-yl)pyridin-2-yl)oxy)cyclobutoxy)pyridin-3-yl)hexyl)oxy)isoindoline-1,3-dione]", "Degradation activity* (highest amount of degradation observed at any dosage; tau protein remaining)": "C (>80% tau protein remaining after 72 hours of incubation with the test compound)"}
{"smiles": "O=C1CCC(N2C(=O)c3ccc(OCC#Cc4ccc(O[C@H]5C[C@@H](Oc6ccc(-c7ccc8c(c7)[nH]c7ccncc78)cn6)C5)cn4)cc3C2=O)C(=O)N1", "note": "(stereo partly shown) [Compound 183, 5-((3-(5-((1s,3 s)-3-((5-(5H-pyrido[4,3-b]indol-7-yl)pyridin-2-yl)oxy)cyclobutoxy)pyridin-2-yl)prop-2-yn-1-yl)oxy)-2-(2,6-dioxopiperidin-3-yl)isoindoline-1,3-dione]", "Degradation activity (tau protein remaining; highest amount of degradation observed at any dosage)": "A (≤50% tau protein remaining after 72 hours of incubation with the test compound)"}
{"smiles": "Cn1c2ccncc2c2ccc(-c3ccc(O[C@H]4C[C@H](OCCOCCOCCOCC5CN(c6ccc7c(c6)C(=O)N(C6CCC(=O)NC6=O)C7=O)C5)C4)nc3)cc21", "note": "(stereo partly shown) [Compound 206, 2-(2,6-dioxopiperidin-3-yl)-5-(3-((2-(2-(2-((1r,3r)-3-((5-(5-methyl-5H-pyrido[4,3-b]indol-7-yl)pyridin-2-yl)oxy)cyclobutoxy)ethoxy)ethoxy)ethoxy)methyl)azetidin-1-yl)isoindoline-1,3-dione]", "Degradation activity (tau protein remaining; highest amount of degradation observed at any dosage)": "B (≤80% and >50% tau protein remaining after 72 hours of incubation with the test compound)"}
{"smiles": "O=C1CCC(N2C(=O)c3ccc(OCC#Cc4ccc(O[C@H]5C[C@H](Oc6ccc(-c7ccc8c(c7)[nH]c7ccncc78)cn6)C5)cc4)cc3C2=O)C(=O)N1", "note": "(stereo partly shown) [Compound 189, 5-((3-(4-((1r,3r)-3-((5-(5H-pyrido[4,3-b]indol-7-yl)pyridin-2-yl)oxy)cyclobutoxy)phenyl)prop-2-yn-1-yl)oxy)-2-(2,6-dioxopiperidin-3-yl)isoindoline-1,3-dione]", "Degradation activity (tau protein remaining; highest amount of degradation observed at any dosage)": "B (≤80% and >50% tau protein remaining after 72 hours of incubation with the test compound)"}
{"smiles": "O=C1CCC(N2C(=O)c3cccc(NCCOCCOCCOCCOCCOc4ccc(-c5ccc6c(c5)[nH]c5ccncc56)cc4)c3C2=O)C(=O)N1", "note": "(stereo not shown) [Compound 86, 4-((14-(4-(5H-pyrido[4,3-b]indol-7-yl)phenoxy)-3,6,9,12-tetraoxatetradecyl)amino)-2-(2,6-dioxopiperidin-3-yl)isoindoline-1,3-dione]", "Degradation activity* (highest amount of degradation observed at any dosage; tau protein remaining)": "C (>80% tau protein remaining after 72 hours of incubation with the test compound)"}
{"system": "tau protein", "test": "Tau protein in vitro degradation assay (Western blot, Tau-13 antibody)", "format": "cell-based, human", "conditions": "SK-N-SH cells; 72 hours of incubation; tested at 1000 nM, 300 nM and 100 nM", "description": "as §1, §2"}
{"smiles": "Cc1ncsc1-c1ccc([C@H](C)NC(=O)[C@@H]2C[C@@H](O)CN2C(=O)[C@@H](NC(=O)COCCOCCOCCOc2ccc3nc(-c4ccc(N(C)C)cc4)ccc3c2)C(C)(C)C)cc1", "note": "[Compound 30, (2S,4R)-1-((S)-2-tert-butyl-14-(2-(4-(dimethylamino)phenyl)quinolin-6-yloxy)-4-oxo-6,9,12-trioxa-3-azatetradecane)-4-hydroxy-N—((S)-1-(4-(4-methylthiazol-5-yl)phenyl)ethyl)pyrrolidine-2-carboxamide]", "Activity* (highest amount of degradation observed at any dosage, as tau protein remaining)": "C (>80% tau protein remaining after 72 hours of incubation with the test compound)"}
{"smiles": "O=C1CCC(N2C(=O)c3cccc(NCCOCCOCCOCCN4CCN(c5ccn6c(n5)nc5ccccc56)CC4)c3C2=O)C(=O)N1", "note": "(stereo not shown) [Compound 25, 4-((2-(2-(2-(2-(4-(benzo[4,5]imidazo[1,2-a]pyrimidin-2-yl)piperazin-1-yl)ethoxy)ethoxy)ethoxy)ethyl)amino)-2-(2,6-dioxopiperidin-3-yl)isoindoline-1,3-dione]", "Activity* (highest amount of degradation observed at any dosage, as tau protein remaining)": "C (>80% tau protein remaining after 72 hours of incubation with the test compound)"}
{"smiles": "Cc1ncsc1-c1ccc([C@H](C)NC(=O)[C@@H]2C[C@@H](O)CN2C(=O)[C@@H](NC(=O)COCCOCCOCCN2CCN(c3ccn4c(n3)nc3ccccc34)CC2)C(C)(C)C)cc1", "note": "[Compound 15, (2S,4R)-1-((S)-14-(4-(benzo[4,5]imidazo[1,2-a]pyrimidin-2-yl)piperazin-1-yl)-2-(tert-butyl)-4-oxo-6,9,12-trioxa-3-azatetradecanoyl)-4-hydroxy-N—((S)-1-(4-(4-methylthiazol-5-yl)phenyl)ethyl)pyrrolidine-2-carboxamide]", "Activity* (highest amount of degradation observed at any dosage, as tau protein remaining)": "C (>80% tau protein remaining after 72 hours of incubation with the test compound)"}
{"smiles": "Cc1ncoc1-c1ccc([C@H](C)NC(=O)[C@@H]2C[C@@H](O)CN2C(=O)[C@@H](NC(=O)COCCOCCOCCN2CCN(c3ccn4c(n3)nc3ccccc34)CC2)C(C)(C)C)cc1", "note": "[Compound 19, (2S,4R)-1-((S)-14-(4-(benzo[4,5]imidazo[1,2-a]pyrimidin-2-yl)piperazin-1-yl)-2-(tert-butyl)-4-oxo-6,9,12-trioxa-3-azatetradecanoyl)-4-hydroxy-N—((S)-1-(4-(4-methyloxazol-5-yl)phenyl)ethyl)pyrrolidine-2-carboxamide]", "Activity* (highest amount of degradation observed at any dosage, as tau protein remaining)": "C (>80% tau protein remaining after 72 hours of incubation with the test compound)"}
{"smiles": "Cc1ncoc1-c1ccc(CNC(=O)[C@@H]2C[C@@H](O)CN2C(=O)[C@@H](NC(=O)COCCOCCOCC(=O)N2CCN(c3ccn4c(n3)nc3ccccc34)CC2)C(C)(C)C)cc1", "note": "[Compound 13, (2S,4R)-1-((S)-14-(4-(benzo[4,5]imidazo[1,2-a]pyrimidin-2-yl)piperazin-1-yl)-2-(tert-butyl)-4,14-dioxo-6,9,12-trioxa-3-azatetradecanoyl)-4-hydroxy-N-(4-(4-methyloxazol-5-yl)benzyl)pyrrolidine-2-carboxamide]", "Activity* (highest amount of degradation observed at any dosage, as tau protein remaining)": "C (>80% tau protein remaining after 72 hours of incubation with the test compound)"}
